Test results published in patent US20190262357A1, “PREVENTATIVE OR THERAPEUTIC AGENT FOR PULMONARY HY[…] CRUDE DRUG COMPONENT” (TOHOKU UNIVERSITY, priority 2016, published 2019).

Test system: pulmonary artery smooth muscle cells derived from patients with idiopathic pulmonary arterial hypertension (IPAH-PASMCs)
Experiment: Suppression of proliferation of IPAH-PASMCs (MTT assay)
Assay type: cell-based, human
Settings: 0.001-5 μM celastrol, 48 hours
Procedure: The ability of celastrol to suppress the proliferation of pulmonary artery smooth muscle cells from patients with pulmonary hypertension (IPAH-PASMCs) was assessed. Specifically, first, on day −1, 66 μl each of pulmonary artery smooth muscle cells derived from patients with idiopathic pulmonary arterial hypertension (IPAH-PASMCs) suspended in a 10% FBS medium (DMEM supplemented with 10% FBS) were seeded in a 96-well plate at 50,000 cells/ml. 24 Hours after the cell seeding (the time point was defined as day 0), 33 μl each of 0.003 μM, 0.03 μM, 0.3 μM, 3 μM, and 15 μM solutions of celastrol in 10% FBS containing 1% DMSO were added to the wells so that the final concentrations were 0.001 μM, 0.01 μM, 0.1 μM, 1 μM, and 5 μM, respectively. As a control, 33 μl of 10% FBS containing 1% DMSO was added in place of celastrol. On day 0 (immediately before the addition of celastrol), a cell viability was confirmed by performing MTT assay using CellTiter 96 (trademark) AQueous One Solution Cell Proliferation Assay (promega). Further, on day 2, i.e., 48 hours after the addition of celastrol, the MTT assay was performed again to observe a change in cell viability. Thus, a cell proliferation-suppressing effect was assessed.

For `CC1=C(O)C(=O)C=C2C1=CC=C1[C@@]2(C)CC[C@@]2(C)[C@@H]3C[C@](C)(C(=O)O)CC[C@]3(C)CC[C@]12C` [celastrol, (2R,4aS,6aS,12bR,14aS,14bR)-10-hydroxy-2,4a,6a,9,12b,14a-hexamethyl-11-oxo-1,2,3,4,4a,5,6,6a,11,12b,13,14,14a,14b-tetradecahydropicene-2-carboxylic acid], which cell proliferation-suppressing effect is on record?
The cell proliferation-suppressing effect was “a cell proliferation-suppressing effect on pulmonary artery smooth muscle cells derived from patients with idiopathic pulmonary arterial hypertension was obtained”.
